Literature values, collected in PMC4287394 (Clinical cancer research : an official journal of the …, 2014).

Details: Phase I; cited from earlier work

Compound | Observed DLTs | Hyperglycaemia | Patients with rash | Patients with rash (all grades) [%]
Nc1cc(C(F)(F)F)c(-c2cc(N3CCOCC3)nc(N3CCOCC3)n2)cn1 [BKM120] | rash, hyperglycemia and mood alterations |  |  | 
C=CCN(/C=C1/C(=O)O[C@H](COC)[C@@]2(C)C1=C(O)C(=O)C1=C2[C@H](OC(C)=O)C[C@]2(C)C(=O)CC[C@@H]12)CC=C [PX-866] |  | minimal hyperglycaemia | none | 
COc1ccc(Cl)c(Nc2nc3ccccc3nc2NS(=O)(=O)c2cccc(NC(=O)C(C)(C)N)c2)c1 [SAR245408] |  | minimal hyperglycaemia |  | 26
